The NIST ThermoML archive (doi:10.1021/je0496140)

Legend:
[1] = 101.33 kPa, Liquid
[2] = xn = mol fraction of the nth substance listed; settings: 101.33 kPa, Liquid

CCCCCl [1-chlorobutane]
[1]
Settings | mass density [kg/m3] | viscosity [mPa·s]
288.15 K | 891.87 | 0.477
298.15 K | 880.18 | 0.429
303.15 K | 875.19 | 0.409
308.15 K | 869.64 | 0.39
313.15 K | 863.94 | 0.372
318.15 K | 858.31 | 0.354

CCCCO [butan-1-ol]
[1]
Settings | mass density [kg/m3] | viscosity [mPa·s]
288.15 K | 813.42 | 3.346
298.15 K | 805.4 | 2.56
308.15 K | 798.14 | 1.991
318.15 K | 790.19 | 1.569

CC(C)(C)O [2-methylpropan-2-ol]
[1]
Settings | mass density [kg/m3] | viscosity [mPa·s]
298.15 K | 779.96 | 4.433
303.15 K | 775.3 | 3.355
308.15 K | 770.19 | 2.611
313.15 K | 764.83 | 2.074
318.15 K | 759.52 | 1.685

CCC(C)O (stereo not drawn) [butan-2-ol]
[1]
Settings | mass density [kg/m3] | viscosity [mPa·s]
288.15 K | 810.72 | 4.509
298.15 K | 801.82 | 3.035
308.15 K | 794.07 | 2.111
318.15 K | 785.15 | 1.523

CCCCCl [1-chlorobutane] + CCCCO
[2]
Settings | mass density [kg/m3] | viscosity [mPa·s]
288.15 K, x2 = 0.062 | 886.96 | –
288.15 K, x2 = 0.0949 | – | 0.509
288.15 K, x2 = 0.1027 | 883.98 | –
288.15 K, x2 = 0.1383 | 881.38 | –
288.15 K, x2 = 0.1964 | – | 0.57
288.15 K, x2 = 0.2032 | 876.67 | –
288.15 K, x2 = 0.2597 | 872.57 | –
288.15 K, x2 = 0.2859 | 870.67 | –
288.15 K, x2 = 0.2961 | – | 0.655
288.15 K, x2 = 0.3764 | 864.06 | –
288.15 K, x2 = 0.3949 | – | 0.774
288.15 K, x2 = 0.3967 | 862.58 | –
288.15 K, x2 = 0.4541 | 858.3 | –
288.15 K, x2 = 0.4822 | 856.17 | –
288.15 K, x2 = 0.4941 | – | 0.94
288.15 K, x2 = 0.5076 | 854.25 | –
288.15 K, x2 = 0.5466 | 851.25 | –
288.15 K, x2 = 0.5818 | 848.53 | –
288.15 K, x2 = 0.5915 | – | 1.175
288.15 K, x2 = 0.6332 | 844.49 | –
288.15 K, x2 = 0.6747 | 841.19 | –
288.15 K, x2 = 0.6954 | – | 1.503
288.15 K, x2 = 0.7342 | 836.4 | –
288.15 K, x2 = 0.7698 | 833.49 | –
288.15 K, x2 = 0.794 | – | 1.934
288.15 K, x2 = 0.8509 | 826.62 | –
288.15 K, x2 = 0.892 | – | 2.529
288.15 K, x2 = 0.9022 | 822.13 | –
288.15 K, x2 = 0.9582 | 817.04 | –
298.15 K, x2 = 0.0949 | – | 0.452
298.15 K, x2 = 0.1964 | – | 0.504
298.15 K, x2 = 0.2961 | – | 0.57
298.15 K, x2 = 0.3949 | – | 0.661
298.15 K, x2 = 0.4941 | – | 0.788
298.15 K, x2 = 0.5915 | – | 0.955
298.15 K, x2 = 0.6954 | – | 1.204
298.15 K, x2 = 0.794 | – | 1.525
298.15 K, x2 = 0.892 | – | 1.955
308.15 K, x2 = 0.0949 | – | 0.407
308.15 K, x2 = 0.1056 | 861.88 | –
308.15 K, x2 = 0.1964 | – | 0.448
308.15 K, x2 = 0.1979 | 855.62 | –
308.15 K, x2 = 0.2842 | 849.82 | –
308.15 K, x2 = 0.2961 | – | 0.501
308.15 K, x2 = 0.3908 | 842.67 | –
308.15 K, x2 = 0.3949 | – | 0.576
308.15 K, x2 = 0.4941 | – | 0.67
308.15 K, x2 = 0.4964 | 835.5 | –
308.15 K, x2 = 0.5913 | 828.95 | –
308.15 K, x2 = 0.5915 | – | 0.797
308.15 K, x2 = 0.6908 | 821.85 | –
308.15 K, x2 = 0.6954 | – | 0.984
308.15 K, x2 = 0.7917 | 814.48 | –
308.15 K, x2 = 0.794 | – | 1.226
308.15 K, x2 = 0.892 | – | 1.547
308.15 K, x2 = 0.9003 | 806.19 | –
318.15 K, x2 = 0.0612 | 853.78 | –
318.15 K, x2 = 0.0913 | 851.66 | –
318.15 K, x2 = 0.0949 | – | 0.367
318.15 K, x2 = 0.1849 | 845.48 | –
318.15 K, x2 = 0.1964 | – | 0.401
318.15 K, x2 = 0.2759 | 839.66 | –
318.15 K, x2 = 0.2961 | – | 0.444
318.15 K, x2 = 0.3836 | 832.82 | –
318.15 K, x2 = 0.3949 | – | 0.503
318.15 K, x2 = 0.4858 | 826.26 | –
318.15 K, x2 = 0.4941 | – | 0.577
318.15 K, x2 = 0.5859 | 819.71 | –
318.15 K, x2 = 0.5915 | – | 0.674
318.15 K, x2 = 0.6868 | 812.99 | –
318.15 K, x2 = 0.6954 | – | 0.816
318.15 K, x2 = 0.7868 | 806.09 | –
318.15 K, x2 = 0.794 | – | 0.993
318.15 K, x2 = 0.8906 | 798.56 | –
318.15 K, x2 = 0.892 | – | 1.238
